Data taken from patent publication US9232792B2, “Method for promoting plant growth” (SUMITOMO CHEMICAL COMPANY, LIMITED, priority 2011, dated 2016).

What was measured:
Assay type in all cases: in vivo
[1] = system: Rice (cultivar: Nipponbare); experiment: Test Example 1: promotion of root growth in hydroponics of rice; conditions: 1 ppm in hydroponic solution; 3 days germination + 3 days cultivation
Method: (§1) Rice (cultivar: Nipponbare)
DMSO solutions containing each of the present compounds 1 to 3 at 10,000 ppm were prepared. A 1/10,000 volume of each DMSO solution containing each of the present compounds 1 to 3 at 10,000 ppm was added to a Hoagland solution for hydroponics at ¼ concentration (Hoagland and Arnon, California Agricultural Experiment Station 1950 Circular 347 pp. 34) to obtain a solution for hydroponics containing each of the present compounds 1 to 3 at 1 ppm. These solutions were used in the treated-group.
In a non-treated group, a solution for hydroponics obtained by adding a Hoagland solution for hydroponics at ¼ concentration to a 1/10,000 volume of DMSO was used.
The rice seeds were immersed in an aqueous solution of 1% sodium hypochlorite for 10 minutes, followed by 70% ethanol solution to sterilize their surfaces. After that, the seeds were washed with distilled water. The sterilized seeds were immersed in each solution for hydroponics containing the test compound at the given concentration, and incubated at a temperature of 28° C. for 3 days under dark conditions to stimulate the germination of the seeds.
Then, 30 ml of each solution for hydroponics containing the test compound at the given concentration was dispensed into a plastic tube (20 mm in diameter×113 mm in height) covered with a cardboard on the lateral surface for blocking a light. A float made of a styrene board and a vinyl mesh was placed on the water surface of each solution for hydroponics, and the rice seeds obtained after the stimulation of germination were placed on the float. The seeds were cultivated for 3 days under the conditions of an illuminance of 4,000 lux at the top of the tube, a temperature of 26° C., a humidity of 50%, and a day length of 16 hours.
The root length of the rice seedlings obtained after the cultivation was measured by using WinRHIZO system (manufactured by REGENT INSTRUMENTS). The average value of the root length in the treated group was calculated from the measurement values of 4 or 5 individuals. […]

[2] = system: Rice (cultivar: Nipponbare); experiment: Test Example 2: reduction of low-temperature stress by immersion treatment of rice; conditions: 1 ppm in hydroponic solution; 4° C. for 5 days, then 4 days at 25° C.
Method: as §1
A necessary amount of rice seeds was immersed in an aqueous solution of 1,000 ppm of Benlate, and incubated at 30° C. overnight under dark conditions. The aqueous solution of Benlate was replaced with distilled water, and the seeds were further incubated at 30° C. overnight under dark conditions to stimulate the germination of the seeds. A filter paper was placed on the holes of a plug tray having 406 holes, and the rice seeds obtained after the stimulation of germination were sown on the filter paper. To the rice seeds was added a kimura B solution for hydroponics (see Plant Science 119: 39-47 (1996)) at ½ concentration, and cultivated for 5 days in an artificial weather control room under the following conditions: • temperature: daytime 28° C./night 23° C., humidity: 70%, illuminance: 8,500 lux, and day length: 12 hours. <Compound Treatment> […]
Four (4) days after the cultivation, the overground part of each rice plant in the treated group was taken a photograph, and the area of a green portion in the obtained image data was measured with image analysis software Win ROOF (manufactured by MITANI CORPORATION) to determine the green area of the overground part of the plant. In the treated group, the experiment was performed in duplication and the average value of the green area per individual was calculated. […]

[3] = system: Corn (cultivar: Kuromochi); experiment: Test Example 5: reduction of low-temperature stress by treatment of corn seeds; conditions: 2.5±1° C. for 4 days, then 4 days at 27° C.
Method: Corn (cultivar: Kuromochi) A blank slurry solution containing 10% (V/V) color coat red (Becker Underwood, Inc.), 10% (V/V) CF-Clear (Becker Underwood, Inc.) and 1.66% Maxim 4FS (Syngenta) was prepared. A slurry solution was prepared by dissolving the present compound 1 in the blank slurry solution such that 0.5 g, 5 g or 50 g of the compound is applied to each 100 kg of corn seeds. In a 50-ml centrifuge tube (manufactured by BD Japan), 0.35 ml of the slurry solution was placed for each 14.4 g of corn seeds and stirred until the solution was dried, thereby coating the seeds. In addition, seeds were coated with the blank slurry solution and used as seeds for a non-treated group. One of the treated corn seeds was sown in culture soil (AISAI) in each pot (55 mm in diameter×58 mm in height) and cultivated for 10 days under the conditions of a temperature of 27° C., an illuminance of 5,000 lux, and a day length of 16 hours. The grown seedlings were used for the test. The pots at 10 days after the sowing were placed into an artificial weather control room (VHT-2-[…]-NC2-S, manufactured by Nippon Medical & Chemical Instruments Co., Ltd) and cultivated for 4 days under the following conditions: -temperature: 2.5±1° C., day length: 16 hours, and illuminance: 5,000 lux. After the low-temperature stress treatment, the plants were cultivated for 4 days under the conditions of a temperature of 27° C., an illuminance of 5,000 lux, and a day length of 16 hours. Then, the fresh weight of the overground part of the plants was measured. The experiment was performed in four replications for each treatment condition and the average weight per individual was calculated. As a result, the fresh weight of the overground part of plants in the treated group of applying 0.5 g, 5 g or 50 g of the present compound 1 to each 100 kg of seeds was much heavier than that in the non-treated group.

SMILES: O=C(O)c1cc2cc(C(F)(F)F)ccc2s1 [The present compound 1, 5-(trifluoromethyl)benzo[b]thiophene-2-carboxylic acid]
- root length of the rice seedlings vs non-treated group [1]: much longer
- green area of the overground part of the plant vs non-treated group [2]: much larger
- fresh weight of the overground part of plants vs non-treated group ([3]; seed treatment 0.5 g per 100 kg of seeds): much heavier
- fresh weight of the overground part of plants vs non-treated group ([3]; seed treatment 5 g per 100 kg of seeds): much heavier
- fresh weight of the overground part of plants vs non-treated group ([3]; seed treatment 50 g per 100 kg of seeds): much heavier
